IC50 data for 20 compounds are collected here from patent US20240101570A1 (AMGEN INC., priority 2020, published 2024).

Where only a bound is given, the exact number is not on record here.

The test system of one assay is HCT116 WT cells. The assay can be described thus: HCT116 WT cell proliferation / viability (CellTiter-Glo, 6 days). Type of assay: cell-based. As to conditions: Homo sapiens, HCT-116, 144 h, HCT116 WT cells, 6 days, CellTiter-Glo; read-out: HCT-116 WT IC50. The procedure, abridged: (§1)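 IC50 values derive from sigmoidal dose-response fits, some with Hill slope fixed at −1 and top constrained to 100%, others from 4-parameter logistic models. They reflect CellTiter-Glo viability after 6 days of compound exposure at up to 10 or 50 μM.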
In general terms: Cellular ATP, detected with luciferase, serves as a proxy for viable cell number.

The test system of the next assay is HCT116 MTAP null cells. As to the kind of experiment: HCT116 MTAP null cell proliferation / viability (CellTiter-Glo, 6 days). Conditions: HCT116-MTAP null, 144 h, HCT116 MTAP null cells, 6 days, CellTiter-Glo; read-out: HCT-116 MTAP null IC50. Type of assay: cell-based. The procedure, abridged: as §1

For orientation: IC50 means the concentration that gives 50% inhibition. For the compound `CC(C)N(Cc1ccc(C(F)(F)F)cn1)C(=O)c1cc2c3c(c(N)nc2cn1)[C@@H](C)OC3` [Example 310, (3R)-4-amino-3-methyl-N-(2-propanyl)-N-((5-(trifluoromethyl)-2-pyridinyl)methyl)-1,3-dihydrofuro[3,4-c][1,7]naphthyridine-8-carboxamide], the IC50 with HCT116 WT cells is 4050 nM; in the assay with HCT116 MTAP null cells, 71 nM.

Consider `C[C@H]1OCc2c1c(N)nc1cnc(C(=O)N(Cc3ccc(C(F)(F)F)cn3)C34CC(C3)C4)cc21` [Example 311, (3R)-4-amino-N-(bicyclo[1.1.1]pentan-1-yl)-3-methyl-N-((5-(trifluoromethyl)-2-pyridinyl)methyl)-1,3-dihydrofuro[3,4-c][1,7]naphthyridine-8-carboxamide], for which the IC50 in the assay with HCT116 WT cells is 2200 nM; with HCT116 MTAP null cells, 56 nM.

`C[C@H]1OCc2c1c(N)nc1cnc(C(=O)N(C)Cc3ccc(C#N)cn3)cc21` [Example 312, (3R)-4-amino-N-((5-cyano-2-pyridinyl)methyl)-N,3-dimethyl-1,3-dihydrofuro[3,4-c][1,7]naphthyridine-8-carboxamide]: the IC50 with HCT116 WT cells was over 10000 nM; in the assay with HCT116 MTAP null cells, 1090 nM.

`CC(C)N(Cc1ccc(C(F)(F)F)nn1)C(=O)c1cc2c3c(c(N)nc2cn1)[C@@H](C)OC3` [Example 313, (3R)-4-amino-3-methyl-N-(2-propanyl)-N-((6-(trifluoromethyl)-3-pyridazinyl)methyl)-1,3-dihydrofuro [3,4-c][1,7]naphthyridine-8-carboxamide]: the IC50 worked out at 3680 nM in the assay with HCT116 WT cells and 200 nM in the assay with HCT116 MTAP null cells.

In the case of `C[C@H]1OCc2c1c(N)nc1cnc(C(=O)N(Cc3ccc(C(F)(F)F)cn3)C3CC3)cc21` [Example 315, (3R)-4-amino-N-cyclopropyl-3-methyl-N-((5-(trifluoromethyl)-2-pyridinyl)methyl)-1,3-dihydrofuro[3,4-c][1,7]naphthyridine-8-carboxamide], the figures for the IC50 in the assay on HCT116 WT cells and in the assay with HCT116 MTAP null cells were 11100 nM and 137 nM, respectively.

For `C[C@H]1OCc2c1c(N)nc1cnc(C(=O)N(Cc3ccc(C#N)cn3)C3CC3)cc21` [Example 316, (3R)-4-amino-N-((5-cyano-2-pyridinyl)methyl)-N-cyclopropyl-3-methyl-1,3-dihydrofuro[3,4-c][1,7]naphthyridine-8-carboxamide], the IC50 in the assay with HCT116 WT cells is 23600 nM; in the assay with HCT116 MTAP null cells it was 570 nM.

Regarding `C[C@H]1OCc2c1c(N)nc1cnc(C(=O)N(C)Cc3ccc(C(F)(F)F)nn3)cc21` [Example 317, (3R)-4-amino-N,3-dimethyl-N-((6-(trifluoromethyl)-3-pyridazinyl)methyl)-1,3-dihydrofuro [3,4-c][1,7]naphthyridine-8-carboxamide], the IC50 was determined as 49700 nM in the assay with HCT116 WT cells and 432 nM with HCT116 MTAP null cells.

In the case of `C[C@@H]1OCc2c1c(N)nc1cnc(C(=O)N(Cc3ccc(C(F)(F)F)cn3)C3CC3)cc21` [Example 318, (3S)-4-amino-N-cyclopropyl-3-methyl-N-((5-(trifluoromethyl)-2-pyridinyl)methyl)-1,3-dihydrofuro[3,4-c][1,7]naphthyridine-8-carboxamide], the IC50 is 36300 nM in the assay on HCT116 WT cells and 4930 nM in the assay with HCT116 MTAP null cells.

`C[C@@H]1OCc2c1c(N)nc1cnc(C(=O)N(C)Cc3ccc(C(F)(F)F)nn3)cc21` [Example 319, (3S)-4-amino-N,3-dimethyl-N-((6-(trifluoromethyl)-3-pyridazinyl)methyl)-1,3-dihydrofuro[3,4-c][1,7]naphthyridine-8-carboxamide]: the values for the IC50 in the assay with HCT116 WT cells and in the assay with HCT116 MTAP null cells were over 50000 nM and 27700 nM, respectively.

`C[C@H]1OCc2c1c(N)nc1cnc(C(=O)N(Cc3ccc(C(F)(F)F)cn3)CC(F)(F)F)cc21` [Example 320, (3R)-4-amino-3-methyl-N-(2,2,2-trifluoroethyl)-N-((5-(trifluoromethyl)-2-pyridinyl)methyl)-1,3-dihydrofuro [3,4-c][1,7]naphthyridine-8-carboxamide]: the IC50 stood at 15800 nM in the assay with HCT116 WT cells and 303 nM in the assay with HCT116 MTAP null cells.

Regarding `Nc1nc2ncc(C(=O)N(Cc3ccc(C(F)(F)F)cn3)CC3CC3)cc2c2c1COC2` [Example 321, 4-amino-N-(cyclopropylmethyl)-N-((5-(trifluoromethyl)-2-pyridinyl)methyl)-1,3-dihydrofuro[3,4-c][1,8]naphthyridine-8-carboxamide], the IC50 amounted to 3790 nM with HCT116 WT cells and 226 nM with HCT116 MTAP null cells.

In the case of `COC[C@@H](C)N(Cc1ccc(C(F)(F)F)cn1)C(=O)c1cnc2nc(N)c3c(c2c1)COC3` [Example 322, 4-amino-N-((2R)-1-methoxy-2-propanyl)-N-((5-(trifluoromethyl)-2-pyridinyl)methyl)-1,3-dihydrofuro[3,4-c][1,8]naphthyridine-8-carboxamide], the IC50 with HCT116 WT cells came out at 1030 nM; with HCT116 MTAP null cells, 81 nM.

With `CN(Cc1ccc(C2CC2)cn1)C(=O)c1ccc2nc(N)c3c(c2c1)COC3` [Example 323, 4-amino-N-((5-cyclopropyl-2-pyridinyl)methyl)-N-methyl-1,3-dihydrofuro[3,4-c]quinoline-8-carboxamide], the IC50 in the assay on HCT116 WT cells was found to be 15000 nM; in the assay on HCT116 MTAP null cells, 358 nM.

Turning to `CN(Cc1ccc(C#N)cn1)C(=O)c1ccc2nc(N)c3c(c2c1)COC3` [Example 324, 4-amino-N-((5-cyano-2-pyridinyl)methyl)-N-methyl-1,3-dihydrofuro[3,4-c]quinoline-8-carboxamide], the concentration for half-maximal inhibition (IC50) in the assay with HCT116 WT cells amounted to 51600 nM; in the assay on HCT116 MTAP null cells it was 908 nM.

For `N#Cc1ccc(CN(CC2CC2)C(=O)c2ccc3nc(N)c4c(c3c2)COC4)nc1` [Example 325, 4-amino-N-((5-cyano-2-pyridinyl)methyl)-N-(cyclopropylmethyl)-1,3-dihydrofuro[3,4-c]quinoline-8-carboxamide], the results for the IC50 in the assay with HCT116 WT cells and with HCT116 MTAP null cells were 2280 nM and 73 nM, respectively.

For the compound `C[C@H]1OCc2c1c(N)nc1ccc(C(=O)N(Cc3ccc(Br)nn3)CC3CC3)cc21` [Example 326, (3R)-4-amino-N-((6-bromo-3-pyridazinyl)methyl)-N-(cyclopropylmethyl)-3-methyl-1,3-dihydrofuro[3,4-c]quinoline-8-carboxamide], the IC50 worked out at 1280 nM with HCT116 WT cells and 19 nM in the assay on HCT116 MTAP null cells.

Consider `CN(Cc1ccc(Br)nn1)C(=O)c1ccc2nc(N)c3c(c2c1)COC3` [Example 327, 4-amino-N-((6-bromo-3-pyridazinyl)methyl)-N-methyl-1,3-dihydrofuro[3,4-c]quinoline-8-carboxamide], for which the half-inhibitory concentration (IC50) with HCT116 WT cells was over 10000 nM; in the assay with HCT116 MTAP null cells, 811 nM.

Turning to `C[C@H]1OCc2c1c(N)nc1ccc(C(=O)N(C)Cc3ccc(Br)cn3)cc21` [Example 328, (3R)-4-amino-N-((5-bromo-2-pyridinyl)methyl)-N,3-dimethyl-1,3-dihydrofuro[3,4-c]quinoline-8-carboxamide], the IC50 with HCT116 WT cells amounted to 19400 nM; in the assay with HCT116 MTAP null cells, 129 nM.

Turning to `C[C@H](c1ncccn1)N(Cc1ccc(C2CC2)nn1)C(=O)c1ccc2nc(N)c3c(c2c1)CO[C@@H]3C` [Example 329, (3R)-4-amino-N-((6-cyclopropyl-3-pyridazinyl)methyl)-3-methyl-N-((1R)-1-(2-pyrimidinyl)ethyl)-1,3-dihydrofuro[3,4-c]quinoline-8-carboxamide], the IC50 was found to be 160 nM in the assay with HCT116 WT cells and 22 nM in the assay on HCT116 MTAP null cells.

Take `CN(Cc1ccc(Br)cn1)C(=O)c1ccc2nc(N)c3c(c2c1)COC3` [Example 330, 4-amino-N-((5-bromo-2-pyridinyl)methyl)-N-methyl-1,3-dihydrofuro[3,4-c]quinoline-8-carboxamide]: the IC50 in the assay with HCT116 WT cells is over 10000 nM; in the assay on HCT116 MTAP null cells, 204 nM.
